Data published in US20230357248A1, “PYRROLOPYRIMIDINE COMPOUND AS BTK INHIBITOR AND USE THEREOF” (MEDSHINE DISCOVERY INC., priority 2019, published 2023).

Key:
[1] = biological target: BTK^C481S (Homo sapiens (Human), UniProt Q06187, C481S); experiment: BTK enzyme activity assay; type: biochemical; details: 200 μM ATP; 33P-ATP, filter-binding method
Procedure: The specific assay process of BTK enzyme activity assay is as follows: Buffer: 20 mM 2-[4-(2-hydroxyethyl)-1-piperazinyl]ethanesulfonic acid (Hepes) (pH 7.5), 10 mM magnesium chloride, 1 mM ethylenebis(oxyethylenenitrilo)tetraacetic acid (EGTA), 0.02% polyoxyethylene dodecyl ether (Brij35), 0.02 mg/mL BSA, 0.1 mM sodium vanadate (Na3VO4), 2 mM dithiothreitol (DTT), 1% DMSO, 200 μM adenosine triphosphate (ATP). • 1. The substrate was prepared in freshly prepared reaction buffer; • 2. The required cofactor was added to the above-mentioned substrate solution; • 3. The kinase BTK^C481S was added to the above-mentioned substrate solution and mixed well; • 4. The compound dissolved in DMSO was added to the kinase reaction mixture by Echo550 (Acoustic technology; nanoliter range), and the mixture was incubated at room temperature for 20 minutes; • 5. ^33P-ATP (specific radioactivity of 10 μCi/μL) was added to the reaction mixture to initiate the reaction; • 6. The mixture was incubated at room temperature for 2 hours; • 7. The radioactivity was detected by filter-binding method; • 8. Kinase activity data represented the percentage of remaining kinase activity in the assay sample compared to the vehicle (dimethyl sulfoxide) reaction.

[2] = Plasma protein binding (PPB) assay, H; type: in vitro ADME; details: human, dialysis 4 hr 37° C.
Procedure: (§1) Assay procedure: 995 μL of blank plasma of various genera were weighed, and 5 μL of assay compound working solution (400 μM) or warfarin working solution (400 μM) was added so that the final concentrations of the assay compound and warfarin in plasma sample were each 2 μM. The samples were mixed thoroughly. The final concentration of DMSO (the organic phase) was 0.5%. 50 μL of the plasma samples of the assay compound and warfarin were pipetted to a sample receiving plate (in triplicate), and the corresponding volume of corresponding blank plasma or buffer was added immediately, so that the final volume in each sample well was 100 μL, wherein the volume ratio of plasma:dialysis buffer was 1:1. 500 μL of stop solution was then added to these samples. These samples were used as T0 samples for determination of recovery and stability. […] All samples were subjected to protein precipitation, and then analyzed by LC/MS/MS. Bound rate and recovery rate of protein were calculated using the following formulae: % Unbound=100*F/T, % Bound=100−% Unbound, % Recovery=100*(F+T)/T0 (wherein F is the peak area ratio of the compound in the dialysate after 4 h of dialysis; T is the peak area ratio of the compound in the plasma after 4 h of dialysis; To is the peak area ratio of the compound in the plasma sample at time zero).

[3] = Plasma protein binding (PPB) assay, C; type: in vitro ADME; details: cynomolgus monkey, dialysis 4 hr 37° C.
Procedure: as §1

[4] = Plasma protein binding (PPB) assay, R; type: in vitro ADME; details: rat, dialysis 4 hr 37° C.
Procedure: as §1

[5] = Pharmacokinetic evaluation in SD rat (intravenous); type: in vivo; details: about 0.5 mg/kg
Procedure: Assay purpose: To assay the pharmacokinetics of the compound in SD rat (intravenous)
Pharmacokinetic study of oral and intravenously injected compound 4 and reference example 1 in SD rat.
Compound 4 and reference example 1 were mixed with the solvent (10% NMP/60% PEG400/30% H2O). The mixture was vortexed and sonicated to prepare a clarified solution of 0.5 mg/mL. […] Whole blood was collected for a certain period of time to prepare the plasma. Drug concentration was analyzed by LC-MS/MS, and pharmacokinetic parameters were calculated by Phoenix WinNonlin software (Pharsight, USA).

[6] = tested on: xenograft tumor of human diffuse large B lymphoma TMD8; experiment: Xenograft tumor model of TMD8 in SCID mouse; type: in vivo
Procedure: Xenograft tumor model of TMD8 in SCID mouse:
Assay method: A tumor model of subcutaneously transplanted human diffuse large B lymphoma in mice was established. Tumor cells in logarithmic growth phase were collected, counted, and then resuspended in RPMI1640. The cell suspension was adjusted to a concentration of 4×10^7/mL, and mixed well with Matrigel (1:1). Tumor cells were inoculated subcutaneously on the right back of the mouse with a 1 mL syringe ([…]), 4×10^6 cells/mouse. When the animal tumor reached about 100-300 mm^3, the tumor-bearing mice were randomly divided into 6 groups according to the size of the tumor volume, with 6 mice in each group. On the day of the assay, the animals were administered the corresponding drugs according to the corresponding groups. The first group G1 was set as a negative control group, which was administered 10% NMP/60% PEG400/30% H2O by gavage alone. The second group G2 was set as a positive control group, which was given reference example 1 (compound 005-1) at a dose of 30 mg/kg. The third group G3 was given compound 4 at a dose of 30 mg/kg, once a day, for a total of 15 days.
During the assay, animal weight and tumor size were measured 3 times a week, and clinical symptoms of animals were observed and recorded every day. Each dosing was referenced to the most recent animal weight.
For tumor measurement, length (a) and width (b) were measured with digital vernier calipers, and the calculation formula for tumor volume (TV) was: TV=a×b^2/2.

[7] = TMD8 xenograft in SCID mouse, 30 mg/kg PO, QD × 15, 14th day

Sequence of BTK^C481S (Q06187 whole entry C481S): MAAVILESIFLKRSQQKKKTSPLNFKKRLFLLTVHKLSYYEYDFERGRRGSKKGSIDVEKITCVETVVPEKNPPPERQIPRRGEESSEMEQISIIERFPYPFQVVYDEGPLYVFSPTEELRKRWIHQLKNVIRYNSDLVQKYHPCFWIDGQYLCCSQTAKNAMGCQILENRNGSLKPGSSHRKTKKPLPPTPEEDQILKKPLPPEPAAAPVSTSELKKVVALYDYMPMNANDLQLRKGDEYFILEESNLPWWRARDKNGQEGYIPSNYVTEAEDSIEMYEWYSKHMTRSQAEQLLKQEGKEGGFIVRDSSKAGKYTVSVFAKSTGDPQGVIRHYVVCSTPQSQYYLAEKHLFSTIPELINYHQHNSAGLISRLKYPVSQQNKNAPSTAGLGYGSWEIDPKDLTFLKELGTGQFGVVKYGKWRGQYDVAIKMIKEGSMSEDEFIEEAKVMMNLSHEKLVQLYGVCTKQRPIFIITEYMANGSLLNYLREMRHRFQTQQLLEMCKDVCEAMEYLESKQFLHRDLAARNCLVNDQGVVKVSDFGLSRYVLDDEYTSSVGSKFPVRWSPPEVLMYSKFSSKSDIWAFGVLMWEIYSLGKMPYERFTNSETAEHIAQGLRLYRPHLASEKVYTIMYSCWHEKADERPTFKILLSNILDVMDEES

CO[C@@H]1C[C@@H](CO)OC[C@@H]1Nc1ncnc2[nH]cc(C(=O)c3ccc(Oc4ccccc4)cc3Cl)c12 [Compound 4]
IC50 [1]: 7.3 nM
fraction unbound at 4 h, 2 μM [2]: 0.004
fraction unbound at 4 h, 2 μM [3]: 0.001
fraction unbound at 4 h, 2 μM [4]: 0.002
AUCu ([5]; AUCu = AUC0-inf * Unbound PPB (in vivo assay of PPB in rat)): 0.0034 µM·h
AUC(0-inf) ([5]; male, plasma): 1.7 µM·h
C0 ([5]; male, plasma): 852 nM
Vd ([5]; male, plasma): 1.42 L/kg
clearance ([5]; male, plasma): 9.8 mL/min/kg
half-life ([5]; male, plasma): 1.82 h
inhibitory effect on xenograft tumor of human diffuse large B lymphoma TMD8 in mouse (in words) ([6]; 30 mg/kg once a day): a certain inhibitory effect
relative tumor proliferation rate T/C ([6]; 5th day, 30 mg/kg once a day): 66.33%
relative tumor proliferation rate ([6]; 14th day, 30 mg/kg once a day): 21.53%
tumor volume inhibition rate TGI (%) ([6]; 14th day, 30 mg/kg once a day): 79.04%
Tumor volume inhibition rate TGI [6, 7]: 79.04%
relative tumor proliferation rate T/C [6, 7]: 21.53%
